Assay results published in patent publication US6914045B2, “Glycopeptide antibiotics” (Wyeth Holdings Corporation, priority 2001, dated 2005).
In brackets after ≈: the same amount, converted by molar mass.

Legend:
Assay in all cases: in vitro antibacterial evaluation, MIC by broth dilution
Assay type in all cases: cell-based
[1] = test system: Enterococcus sp.; details: broth dilution, 18 hours at 35° C.; for MIC Enterococcus faecalis (ATCC 29212): strain ATCC 29212; for MIC Enterococcus faecalis (GC 2242): strain GC 2242; for MIC Enterococcus faecium (GC 2243): strain GC 2243; for MIC Enterococcus faecalis (GC 2691): strain GC 2691; for MIC Enterococcus faecalis (GC 3059): strain GC 3059; for MIC Enterococcus faecalis (GC 4552): strain GC 4552; for MIC Enterococcus faecalis (GC 4553): strain GC 4553; for MIC Enterococcus faecalis (GC 4554): strain GC 4554; for MIC Enterococcus faecium (GC 4556): strain GC 4556; for MIC Enterococcus faecium (GC 4557): strain GC 4557; for MIC Enterococcus avium (GC 4558): strain GC 4558; for MIC Enterococcus faecalis (GC 6189): strain GC 6189
Method: (§1) Methods for in vitro Antibacterial Evaluation (Table 1)
(§2) The minimum inhibitory concentration (MIC), the lowest concentration of the antibiotic which inhibits growth of the test organism, is determined by the broth dilution method using Muller-Hinton II […] (Baltimore Biological Laboratories) following the recommendations of the National Committee for Clinical Laboratory Standards [Methods for dilution antimicrobial susceptibility tests for bacteria that grow aerobically, approved standard M7-A2, National Committee for Clinical Laboratory Standards, Villanova, Pa.].
(§3) An inoculum level of 5×10^5 CFU/mL, and a range of antibiotic concentrations (64-0.06 μg/mL) is used. […] The test organisms include a spectrum of Gram-positive bacteria comprised of Staphylococcus sp., Streptococcus sp. and Enterococcus sp. These organisms include recent clinical isolates that are resistant to methicillin, penicillin and/or vancomycin.

[2] = test system: Staphylococcus sp.; details: broth dilution, 18 hours at 35° C.; for MIC Staphylococcus aureus (ATCC 29213): strain ATCC 29213; for MIC Staphylococcus aureus (GC 1131): strain GC 1131; for MIC Staphylococcus aureus (GC 3051): strain GC 3051; for MIC Staphylococcus aureus (GC 3053): strain GC 3053; for MIC Staphylococcus aureus (GC 4541): strain GC 4541; for MIC Staphylococcus aureus (GC 4542): strain GC 4542; for MIC Staphylococcus aureus-SMITH (GC 4543): strain GC 4543; for MIC Staphylococcus aureus (GC 4544): strain GC 4544; for MIC Staphylococcus aureus (GC 4545): strain GC 4545; for MIC Staphylococcus haemolyticus (GC 4546): strain GC 4546; for MIC Coagulase Negative Staphylococcus (GC 4547): strain GC 4547; for MIC Coagulase Negative Staphylococcus (GC 4548): strain GC 4548; for MIC Coagulase Negative Staphylococcus (GC 4549): strain GC 4549; for MIC Coagulase Negative Staphylococcus (GC 4551): strain GC 4551; for MIC Coagulase Negative Staphylococcus (GC 6257): strain GC 6257
Method: as §1, §2, §3

[3] = test system: Streptococcus sp.; details: broth dilution, 18 hours at 35° C.; for MIC Streptococcus pneumoniae (ATCC 6301): strain ATCC 6301; for MIC Streptococcus pneumoniae (GC 1894): strain GC 1894; for MIC Streptococcus pyogenes (GC 4563): strain GC 4563; for MIC Streptococcus agalactiae (GC 4564): strain GC 4564; for MIC Streptococcus pneumoniae (GC 4565): strain GC 4565
Method: as §1, §2, §3

[4] = test system: Escherichia coli; details: broth dilution, 18 hours at 35° C.; for MIC Escherichia coli (ATCC 25922): strain ATCC 25922; for MIC Escherichia coli (GC 4559): strain GC 4559; for MIC Escherichia coli (GC 4560): strain GC 4560
Outline: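 MIC is the lowest antibiotic concentration (tested 64-0.06 μg/mL) preventing growth of a 5×10^5 CFU/mL inoculum. Determined by broth dilution in Mueller-Hinton II medium following NCCLS standard M7-A2.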

Compound | MIC Enterococcus faecalis (ATCC 29212) [1] [µg/mL] | MIC Enterococcus faecalis (GC 2242) [1] [µg/mL] | MIC Enterococcus faecium (GC 2243) [1] [µg/mL] | MIC Enterococcus faecalis (GC 2691) [1] [µg/mL] | MIC Enterococcus faecalis (GC 3059) [1] [µg/mL] | MIC Enterococcus faecalis (GC 4552) [1] [µg/mL] | MIC Enterococcus faecalis (GC 4553) [1] [µg/mL] | MIC Enterococcus faecalis (GC 4554) [1] [µg/mL] | MIC Enterococcus faecium (GC 4556) [1] [µg/mL] | MIC Enterococcus faecium (GC 4557) [1] [µg/mL] | MIC Enterococcus avium (GC 4558) [1] [µg/mL] | MIC Enterococcus faecalis (GC 6189) [1] [µg/mL] | MIC Staphylococcus aureus (ATCC 29213) [2] [µg/mL] | MIC Staphylococcus aureus (GC 1131) [2] [µg/mL] | MIC Staphylococcus aureus (GC 3051) [2] [µg/mL] | MIC Staphylococcus aureus (GC 3053) [2] [µg/mL] | MIC Staphylococcus aureus (GC 4541) [2] [µg/mL] | MIC Staphylococcus aureus (GC 4542) [2] [µg/mL] | MIC Staphylococcus aureus-SMITH (GC 4543) [2] [µg/mL] | MIC Staphylococcus aureus (GC 4544) [2] [µg/mL] | other results
CC(c1ccccc1)C1NC(=O)CNC(=O)C(CO)NC(=O)C(CC2CNC(=N)N2C2OC(CO)C(O)C(O)C2O)NC(=O)C(CC2CNC(=N)N2)NC(=O)C(Cc2ccc3oc(-c4ccc5c(c4)Cc4ccccc4-5)nc3c2)NC1=O (stereo not drawn) [Example 42, Cyclo[3-[2-(9H-fluoren-2-yl)-1,3-benzoxazol-5-yl]alanyl-3-(2-iminoimidazolidin-4-yl)alanyl-3-(3-hexopyranosyl-2-iminoimidazolidin-4-yl)alanylserylglycyl-β-methylphenylalanyl]] | 8 (≈ 7.09 µM) | 8 (≈ 7.09 µM) | 4 (≈ 3.55 µM) | 8 (≈ 7.09 µM) | 16 (≈ 14.2 µM) | 8 (≈ 7.09 µM) | 8 (≈ 7.09 µM) | 8 (≈ 7.09 µM) | 16 (≈ 14.2 µM) | 2 (≈ 1.77 µM) | 4 (≈ 3.55 µM) | 8 (≈ 7.09 µM) | 4 (≈ 3.55 µM) | 2 (≈ 1.77 µM) | 8 (≈ 7.09 µM) | 4 (≈ 3.55 µM) | 2 (≈ 1.77 µM) | 2 (≈ 1.77 µM) | 2 (≈ 1.77 µM) | 2 (≈ 1.77 µM) | MIC Staphylococcus aureus (GC 4545) [2]: 2 µg/mL (≈ 1.77 µM); MIC Staphylococcus haemolyticus (GC 4546) [2]: 2 µg/mL (≈ 1.77 µM); MIC Coagulase Negative Staphylococcus (GC 4547) [2]: 2 µg/mL (≈ 1.77 µM); MIC Coagulase Negative Staphylococcus (GC 4548) [2]: 1 µg/mL (≈ 0.886 µM); MIC Coagulase Negative Staphylococcus (GC 4549) [2]: 1 µg/mL (≈ 0.886 µM); MIC Coagulase Negative Staphylococcus (GC 4551) [2]: 4 µg/mL (≈ 3.55 µM); MIC Coagulase Negative Staphylococcus (GC 6257) [2]: 1 µg/mL (≈ 0.886 µM); MIC Streptococcus pneumoniae (ATCC 6301) [3]: 8 µg/mL (≈ 7.09 µM); MIC Streptococcus pneumoniae (GC 1894) [3]: 16 µg/mL (≈ 14.2 µM); MIC Streptococcus pyogenes (GC 4563) [3]: 4 µg/mL (≈ 3.55 µM); MIC Streptococcus agalactiae (GC 4564) [3]: 8 µg/mL (≈ 7.09 µM); MIC Streptococcus pneumoniae (GC 4565) [3]: 16 µg/mL (≈ 14.2 µM); MIC Escherichia coli (ATCC 25922) [4]: 32 µg/mL (≈ 28.4 µM); MIC Escherichia coli (GC 4559) [4]: 32 µg/mL (≈ 28.4 µM); MIC Escherichia coli (GC 4560) [4]: 1 µg/mL (≈ 0.886 µM)
CCC(=O)Nc1cc(CC2NC(=O)C(C(C)c3ccccc3)NC(=O)CNC(=O)C(CO)NC(=O)C(C(O)C3CNC(=N)N3C3OC(CO)C(O)C(O)C3O)NC(=O)C(C(O)C3CNC(=N)N3)NC2=O)ccc1O (stereo not drawn) [Example 14, Cyclo[glycyl-β-methylphenylalanyl-3-(propanamido)tyrosyl-3-(2-iminoimidazolidin-4-yl)seryl-3-(3-hexopyranosyl-2-iminoimidazolidin-4-yl)serylseryl]] | >128 | >128 | >128 | >128 | >128 | >128 | >128 | >128 | >128 | >128 | 128 (≈ 123 µM) | >128 | >128 | >128 | >128 | >128 | >128 | >128 | >128 | >128 | MIC Staphylococcus aureus (GC 4545) [2]: >128 µg/mL; MIC Staphylococcus haemolyticus (GC 4546) [2]: >128 µg/mL; MIC Coagulase Negative Staphylococcus (GC 4547) [2]: >128 µg/mL; MIC Coagulase Negative Staphylococcus (GC 4548) [2]: >128 µg/mL; MIC Coagulase Negative Staphylococcus (GC 4549) [2]: >128 µg/mL; MIC Coagulase Negative Staphylococcus (GC 4551) [2]: >128 µg/mL; MIC Coagulase Negative Staphylococcus (GC 6257) [2]: >128 µg/mL; MIC Streptococcus pneumoniae (ATCC 6301) [3]: >128 µg/mL; MIC Streptococcus pneumoniae (GC 1894) [3]: 128 µg/mL (≈ 123 µM); MIC Streptococcus pyogenes (GC 4563) [3]: >128 µg/mL; MIC Streptococcus agalactiae (GC 4564) [3]: 128 µg/mL (≈ 123 µM); MIC Streptococcus pneumoniae (GC 4565) [3]: 64 µg/mL (≈ 61.4 µM); MIC Escherichia coli (ATCC 25922) [4]: >128 µg/mL; MIC Escherichia coli (GC 4559) [4]: >128 µg/mL; MIC Escherichia coli (GC 4560) [4]: 128 µg/mL (≈ 123 µM)
